{"source": "patent US20150306081A1", "about": "“Chemotherapy for Drug-Resistant Cancer Cells” (THE UNIVERSITY OF SYDNEY, priority 2012, published 2015)", "key": {"[1]": {"system": "Pgp-expressing KBV1 cells", "details": "previously reported (ref. 5); cited from earlier work"}, "[2]": {"experiment": "Redox studies: oxidation of H2DCF, cell-free", "details": "acetate buffer pH 5, cysteine, H2O2, over 12 min", "description": "These studies were conducted in an acetate buffer (150 mM; pH 5) containing cysteine (100 μM) to mimic lysosomal conditions. In these experiments, hydrogen peroxide (100 μM) was added to initiate ROS generation."}, "2008 cells": {"system": "2008 cells", "experiment": "Uptake of 14C-Dp44mT, 2008 cells", "assay_type": "cell-based", "details": "NH4Cl, MA or CLQ pre-incubation", "description": "(§1) For the uptake assay, each 35 mm culture dish containing 5×10^5 cells was incubated with ^14C-doxorubicin, ^3H-vinblastine or ^14C-Dp44mT (all at 1 μCi) for 30 min/37° C. Cells were then washed on ice three times with ice-cold PBS and collected for analysis. Drug uptake was calculated as the number of drug molecules/cell. […] For studies using lysosomotropic agents, cells were pre-incubated with NH4Cl (5 mM), CLQ (100 μM) or MA (100 μM) for 30 min/37° C. prior to ^14C-Dp44mT uptake. […] For efflux assays, the same labeling procedure was conducted as in the uptake assay. […] After this procedure, the overlying media was removed using a Pasteur pipette and then placed in a counting vial. The cells were removed from the plate in 1 mL of PBS and then dispensed into a separate counting vial. The radiolabeled-drug efflux was calculated as a percentage of the total drug uptake by the cells found at zero time."}, "[3]": {"system": "non-Pgp expressing KB31 cells", "experiment": "Rhodamine 123 accumulation assay, KB31 cells", "assay_type": "cell-based, Human", "details": "increased concentrations", "description": "Cells were then harvested and resuspended in ice-cold PBS and kept on ice until flow cytometric analysis (see below).\nThe dyes, Rh123 and acridine orange were detected with the FACS Canto flow cytometer (BD Biosciences) and 10,000 events were acquired for every sample. Data analysis was performed using FlowJo software, version 7.5.5 (Tree Star Inc., Ashland, OR)."}, "[4]": {"system": "non-Pgp expressing KB31 cells", "experiment": "MTT proliferation assay, KB31 cells", "assay_type": "cell-based, Human", "details": "Val 1 μM, Ela 0.1 μM, 72 h"}, "KBV1 cells": {"system": "KBV1 cells", "experiment": "MTT cytotoxicity after transient knockdown of Pgp (MDR1 siRNA) in KBV1 cells", "assay_type": "cell-based, Human", "details": "Pgp siRNA vs. Scr siRNA, 72 h", "description": "(§2) The effect of anti-cancer agents on cellular proliferation was examined using the MTT [3-(4,5-dimethylthiazol-2-yl)-2,5-diphenyl tetrazolium] method. In this assay, 3×10^3 cells/well were seeded in 96-well plates in 100 μL of media. The next day, serially diluted drugs of interest were added. […] The cells were incubated at 37° C. in a humidified atmosphere containing 5% CO2 and 95% air for 72 h. After this incubation, 10 μL of MIT (5 mg/mL) was added to each well and the incubation continued at 37° C. for 2 h. After solubilization of the cells with 100 μL of 10% SDS-50% isobutanol in 10 mM HCl, the plates were read at 570 nm using a scanning multi-well spectrophotometer (Victor™ Multilabel Counter plate reader; Perkin Elmer, Australia). Results were analyzed to calculate the concentration of chelator or complex necessary to reduce the absorbance to 50% (IC50) of the control.\nFor all siRNA treatments against MDR1 (MDR1-siRNA; Cat #: 4123, Life Technologies), a siRNAlipofectamine mixture (50 nM MDR1 siRNA and 1/400 lipofectamine 2000) was added to the cells (at 30% confluency) and incubated for 72 h/37° C. prior to further experimentation. The effectiveness of Pgp knockdown was confirmed using western blot and also assessing DOX cytotoxicity via the MTT assay. As a control, scrambled siRNA (Scr siRNA; Life Technologies) was used at the same concentration as MDR1 siRNA."}, "[5]": {"system": "Pgp-expressing KBV1 cells", "experiment": "Uptake of radio-labeled drug, KBV1 cells", "assay_type": "cell-based, Human", "description": "as §1, with “Cells” for “For the uptake assay, each 35 mm culture dish containing 5×10^5 cells was incubated with ^14C-doxorubicin, ^3H-vinblastine or ^14C-Dp44mT (all at 1 μCi) for 30 min/37° C. Cells”, “vial.” for “vial. The radiolabeled-drug efflux was calculated as a percentage of the total drug uptake by the cells found at zero time.”"}, "[6]": {"system": "Pgp expressing 2008/P200A cells", "experiment": "MTT proliferation assay, 2008/P200A cells", "assay_type": "cell-based", "description": "(§3) The 2008 ovarian carcinoma cell line and the PAC-resistant 2008/P200A cell line (grown in 200 ng/mL of PAC) were kindly provided by Dr. John Allen (Centenary Institute, Sydney, Australia). Cells were grown in Dulbecco's modified Eagle's medium (DMEM; Life Technologies) with 10% (v/v) fetal calf serum (Sigma-Aldrich, St. Louis, Mo.) and supplemented with the following additions from Life Technologies: 1% (v/v) sodium pyruvate, 1% (v/v) non-essential amino acids, 100 U/mL penicillin, 100 μg/mL streptomycin, 2 mM L-glutamine and 0.28 μg/mL fungizone. The cells were then incubated at 37° C. in a humidified atmosphere of 5% CO2 and 95% air.\nas §2"}, "[7]": {"system": "non-Pgp expressing KB31 cells", "experiment": "Uptake of radio-labeled drug, KB31 cells", "assay_type": "cell-based, Human", "description": "as §1"}, "2008/P200A cells": {"system": "2008/P200A cells", "experiment": "Uptake of 14C-Dp44mT, 2008/P200A cells", "assay_type": "cell-based", "details": "2008/P200 cells, NH4Cl, MA or CLQ pre-incubation", "description": "as §1"}, "[8]": {"system": "non-Pgp expressing 2008 cells", "experiment": "MTT proliferation assay, 2008 cells", "assay_type": "cell-based", "details": "2008 cells, Val 1 μM, Ela 0.1 μM", "description": "as §3, §2"}}}
{"smiles": "CN(C)C(=S)NN=C(c1ccccn1)c1ccccn1", "note": "[Dp44mT, di-2-pyridylketone 4,4-dimethyl-3-thiosemicarbazone]", "values": [{"measurement": "cytotoxicity to KBV1 cells relative to KB31 cells", "setting": "[1]", "result": "increased cytotoxicity"}, {"measurement": "redox activity (H2DCF oxidation)", "setting": "[2]", "result": "no activity"}, {"measurement": "accumulation after pre-treatment with lysosomotropic agents", "setting": "2008 cells", "result": "did not significantly affect"}, {"measurement": "effect on Rh123 accumulation", "setting": "[3]", "result": "did not significantly affect Rh123 accumulation"}, {"measurement": "change of cytotoxicity in presence of Pgp inhibitors Val or Ela", "setting": "[4]", "result": "did not significantly alter their cytotoxicity"}, {"measurement": "increase of IC50 by knockdown of Pgp", "setting": "KBV1 cells", "result": 10, "unit": "fold"}, {"measurement": "accumulation after pre-treatment with lysosomotropic agents", "setting": "[5]; KBV1 cells, NH4Cl, MA or CLQ pre-incubation 30 min/37° C.", "result": "significantly (p<0.001) decreased"}, {"measurement": "effect of Pgp inhibitors Val and Ela on uptake", "setting": "[5]; KBV1 cells, Val 1 μM or Ela 0.1 μM pre-incubation, versus control", "result": "significantly (p<0.001) increased the uptake"}, {"measurement": "cellular accumulation in KBV1 cells relative to KB31 cells", "setting": "[5]; control groups, 1 μCi", "result": "significantly (p<0.001) less"}, {"measurement": "change of cytotoxicity in presence of Pgp inhibitors Val or Ela", "setting": "[6]; 2008/P200A cells, Val 1 μM, Ela 0.1 μM", "result": "significantly (p<0.001) decreased sensitivity"}, {"measurement": "sensitivity of 2008/P200A cells compared to 2008 cells", "setting": "[6]; 72 h", "result": "significantly (p<0.001) increased sensitivity"}, {"measurement": "accumulation after pre-treatment with lysosomotropic agents", "setting": "[7]; NH4Cl, MA or CLQ pre-incubation", "result": "did not significantly affect"}, {"measurement": "effect of Pgp inhibitors Val and Ela on uptake", "setting": "[7]; Val 1 μM or Ela 0.1 μM pre-incubation, versus control", "result": "did not significantly alter radiolabel uptake"}, {"measurement": "accumulation after pre-treatment with lysosomotropic agents", "setting": "2008/P200A cells", "result": "significantly (p<0.001) decreased"}, {"measurement": "change of cytotoxicity in presence of Pgp inhibitors Val or Ela", "setting": "[8]", "result": "no significant (p>0.05) change"}]}
